SMILES strings stand for the structures.

Data set [1] relates to E.coli, S.epidermis, and S.aureus. Put plainly: Dead/live assays, biocidal activity stated without singling out a bacterium. It is filed as cell-based. The settings on record: UV irradiation. The procedure:
(§1) Dead/live assays were performed to test the biocidal activity of EO-OPE-1(C3, A), EO-OPE-1 (C2, A), EO-OPE-1 (C3, S) and EO-OPE-1 (Th, C3, A) against E.coli, S.epidermis, and S.aureus. E.coli, S.epidermis, and S.aureus were cultured in 50 mL of Difco™ Nutrient broth (LOT 4057492, Becton, Dickinson and Company, Sparks, Md. 21152 USA), Difco™ Nutrient broth (LOT 4057492, Becton, Dickinson and Company, Sparks, Md. 21152 USA), and BBL™ Brain Heart Infusion (LOT 8263271, Becton, Dickinson and Company, Sparks, Md. 21152 USA), respectively, for 18 h at 37° C. under shaking. The bacteria were collected by centrifuging 50 mL of culture at 4,000 rpm in an Eppendorf centrifuge for 15 min at 4° C. The pellet was re-suspended with the assistance of vortex in 25 mL of 0.85% NaCl solution and repelleted. The wash cycle was repeated twice. Bacterial concentrations were measured and normalized using a disposal hemocytometer (INCYTO Co., Ltd), counts being 2.5˜3.0×10^7/mL. The diluted bacteria suspension was added to 1.5 mL of black and transparent microtubes in aliquots of 500 μL for dark and light samples, respectively. Three groups of live controls were prepared with cells suspended in black microtubes, transparent microtubes, and quartz cuvettes at the same concentrations, but without chemicals. These bacteria samples were titrated by OPEs with various concentrations followed by staying in dark for dark samples/controls and exposing to UV irradiation in a photoreactor chamber for light samples/controls with certain duration.
(§2) Dead/live assays were carried out using two sets of stains: SYTO 9/Propidium iodide for E.coli and SYTO 24/Propidium iodide for S.epidermis and S.aureus. SYTO 9 and SYTO 24 are cell membrane permeant nucleic acid stains with green (˜498 nm for SYTO 9 and ˜515 nm for SYTO 24) fluorescence and used to stain both live and dead cells; Propidium iodide is a red-fluorescent nucleic acid stain that is membrane impermeable to viable cells but stains DNA or RNA of dead cells with comprised membranes and emits red (˜617 nm) fluorescence, indicating cell death. Upon the completion of the above treatment, a 1 to 1 ratio mixture of the two dyes was prepared and added into the samples (2.4 μL mixed dyes for 500 μL suspension) and incubated for 15 minutes in the dark. Bacteria were then examined under a 40× oil objective on a Zeiss LSM 510 Meta confocal laser scanning microscope and an Accuri C6 flow cytometer to identify and quantify those live and dead bacteria.

Data set [2] concerns MS2 and T4 bacteriophages. Put plainly: Antiviral activity, general statement. It is filed as cell-based.
Data set [3] in a line: Solubility in solvents. It is filed as physicochemical.
Data set [4] is described as follows: Transient absorption spectroscopy (triplet state). It is filed as physicochemical. As for the experimental part: Photophysical study. For the absorption and fluorescence spectroscopy, we prepared a stock solution with concentration of 1 mM oligomer and 10% v/v solution of DMSO in H2O. 30 μL of the sonicated suspension of each EO-OPE-1 was diluted into 3 mL solution in a quartz cuvette to give a concentration of 10 μM. Absorption and fluorescence were performed on plate reader (SpectroMax M-5 microplate reader, Molecular Devices) at 24° C. Transient absorption spectra were recorded for EO-OPE-1 samples in both methanol and water. Transient absorption spectra were collected using laser systems that are described elsewhere 1, 2. The optical density was adjusted to 0.7 at the excitation wavelength (355 nm) with the laser energy being 6-7 mJ. Solutions were purged with argon for […] before making transient absorption spectroscopy measurements.
Singlet oxygen generation. Excited triplet state (ETS) plays an essential role in the generation of ROS and 1O2. […] Another important point to note is that all members of EO-OPE-1 series underwent fast photobleaching in water during TA experiments (approximately 40-50% reduction in signal intensity). To minimize the error due to photobleaching, fresh samples were prepared and used in each run. […] On the other hand, the triplet lifetimes for EO-OPE-1(C3, A), EO-OPE-1 (C2, A), EO-OPE-1 (C3, S), and EO-OPE-1 (Th, C3, A) are 5.2 μs, 17.9 μs, 18.7 μs, and 7.2 μs, respectively. Based on the above discussions, we would expect C will give a higher yield of 1O2, with lower yields for EO-OPE-1 (C2, A), EO-OPE-1(C3, A), and EO-OPE-1 (C3, S).

Data set [5] relates to T4 phage. Put plainly: TEM of viral morphology damage, T4. Also on record: species or system Bacteriophage T4. The conditions noted are these: 50 ug/ml, dark and irradiated (FIGS. 33, 35, 37, 39). The procedure:
(§3) Transmission Electron Microscopy. High concentration of model viruses (˜10^11 PFU/ml for T4 phage, ˜10^12 PFU/ml for MS2 phage) and CPE/OPE (50 ug/ml) was used for TEM imaging (TEM images were generated in the UNM Electron Microscopy Shared Facility using a Hitachi H7500 transmission electron microscope.) Phage samples were prepared by adding 5 uL phage solutions onto carbon-coated copper grids (freshly cleaned by plasma cleaner) and standing for 2 minutes then rinsing with pure water. The negative stain, 2% aqueous solution of uranyl acetate, was adding onto the grids and standing for 2 minutes, the excess stain was removed by filter paper. The grid was dried in air.

Data set [6] has as its system E.coli. The experiment in a line: Dead/live assay, biocidal activity against E.coli. It is filed as cell-based. The settings on record: under 365 nm radiation. The procedure: Dead/live assays were performed to test the biocidal activity of EO-OPE-1(C3, A), EO-OPE-1 (C2, A), EO-OPE-1 (C3, S) and EO-OPE-1 (Th, C3, A) against E.coli, S.epidermis, and S.aureus. E.coli, S.epidermis, and S.aureus were cultured in 50 mL of Difco™ Nutrient broth (LOT 4057492, Becton, Dickinson and Company, Sparks, Md. 21152 USA), Difco™ Nutrient broth (LOT 4057492, Becton, Dickinson and Company, Sparks, Md. 21152 USA), and BBL™ Brain Heart Infusion (LOT 8263271, Becton, Dickinson and Company, Sparks, Md. 21152 USA), respectively, for 18 h at 37° C. under shaking. The bacteria were collected by centrifuging 50 mL of culture at 4,000 rpm in an Eppendorf centrifuge for 15 min at 4° C. […] Bacterial concentrations were measured and normalized using a disposal hemocytometer (INCYTO Co., Ltd), counts being 2.5˜3.0×10^7/mL. […]
Dead/live assays were carried out using two sets of stains: SYTO 9/Propidium iodide for E.coli and SYTO 24/Propidium iodide for S.epidermis and S.aureus. SYTO 9 and SYTO 24 are cell membrane permeant nucleic acid stains with green (˜498 nm for SYTO 9 and ˜515 nm for SYTO 24) fluorescence and used to stain both live and dead cells; Propidium iodide is a red-fluorescent nucleic acid stain that is membrane impermeable to viable cells but stains DNA or RNA of dead cells with comprised membranes and emits red (˜617 nm) fluorescence, indicating cell death. […]

For data set [7], the system named is MS2 phage. Put plainly: TEM of viral morphology damage, MS2. Also on record: species or system Bacteriophage MS2. The conditions noted are these: 50 ug/ml, dark and irradiated (FIGS. 34, 36, 38, 40). The procedure: as §3
Data set [8] deals with S.aureus. The experiment in a line: Dead/live assay, biocidal activity against S.aureus. It is filed as cell-based. The procedure:
as §1, §2
Experiments similar to those described in Example 1 above were performed using TM and OPE1-DABCO against S. Aureus. FIG. 22 is a graph showing TM vs. 7×10^7/mL S. aureus under light and dark conditions at concentrations of 0.1 and 1 μg/mL and at various time points (5, 10, 15, 30, 45, and 60 minutes). FIG. 23 is a graph showing EO-OPE1-DABCO vs 6×10^7/mL S. aureus under light and dark conditions at different concentrations of 0.1, 1, and 5 μg/mL and at various time points. FIG. 24 is a graph showing EO-OPE1-DABCO vs S. Aureus under light and dark conditions at a concentration of 1 μg/mL and at various time points. FIG. 25 is a graph showing EO-OPE1-DABCO vs S. Aureus under light and dark conditions at different concentrations of 0.1 and 1 μg/mL and at various time points.

For the molecule `C[N+](C)(C)CCCOc1ccc(C#Cc2ccc(C#Cc3ccc(OCCC[N+](C)(C)C)cc3)s2)cc1.[I-].[I-]` [EO-OPE-1 (Th, C3, A)], in data set [1], the “light-induced biocidal activity” value is “dramatic light-induced biocidal activity”. Besides, the “antiviral activity” value in data set [2] is listed as “significant antiviral activity”. Moreover, the “solubility in CH3OH” value in data set [3] (CH3OH) is given as “moderately soluble”. Also, in data set [3] (DMF and DMSO), the “solubility in DMF and DMSO” value is recorded as “quite soluble”. Also, the “solubility in water” value in data set [3] (water) was “poorly soluble”. In addition, the “transient absorption (TA) intensity, comparison in words” value in data set [4] is on record as “highest TA intensity”. In data set [4] (in H2O), the “τ3/intensity in H2O” value came to 0.15, the “τ3/λmax(nm) in H2O” value amounted to 510 nm and the “τ3/μs in H2O (triplet lifetime)” value came out at 7.2 μs. In addition, the “morphology of treated T4 phage by TEM” value in data set [5] is on record as “serious damage”. In addition, the “killing of E. coli” value in data set [6] was “kill”. The “morphology of treated MS2 phage by TEM” value in data set [7] is recorded as “Obvious morphology change”. Besides, the “log killing against S. aureus” value in data set [8] (concentration as low as 5 ng/mL, half hour irradiation) amounted to 5 log. Also, the “killing of S. aureus” value in data set [8] (under 365 nm radiation) is “kill”.

(Values after patent US10092000B2, “Structure, synthesis, and applications for oligo phenylene ethynylenes (OPEs)” (STC.UNM, priority 2010, dated 2018).)
